Measurements as given in patent US20100178316A1, “EXTENDED RELEASE OF BIOACTIVE MOLECULES FROM SILICONE HYDROGELS” (priority 2007, published 2010).

What was measured:
Assay type in all cases: physicochemical
[1] = Packaging test: drug lost from drug-loaded silicone hydrogel to PBS packaging solution; conditions: 0.1 mm thick GEL1, 1.75 cm diameter, loaded from drug-ethanol solution
Description: (§1) Commercial contact lenses are typically packaged in about 1-1.5 ml of packaging solution such as PBS. To estimate the effects of packaging on drug release behavior of silicone hydrogel appliances, packaging tests were conducted. A 0.1 mm thick silicone hydrogel was cut into circular pieces of 1.75 cm diameter and a drug was loaded by soaking the silicone hydrogel in a drug-ethanol solution. A 0.1 mm thick piece of GEL1 was loaded with a drug by soaking in drug-ethanol solution of 6.4 mg/ml for timolol and 4.8 mg/ml for DXA. The GEL1 pieces were then blotted with wipes to remove excess drug-ethanol solution from the pieces. The pieces were dried in air overnight before conducting the packaging tests. The silicone hydrogels were then stored in 1 ml of PBS (packaging) solution in a sealed vials for 1.3 or 2 months, and subsequently the appliance was placed in 2 ml of fresh PBS solution. The release of the drug over time is plotted in FIG. 17 and FIG. 18 for timolol and DXA, respectively. For timolol, about 364 μg and 404 μg of drug were lost to the packaging solution for the appliance stored for 1.3 months and 2 months, respectively. The residual drug released into the fresh PBS solution at an average rate of 0.09 mg/(g of gel·day) for 20 days, and then at a lower rate for another 2 months as shown in FIG. 17. […]

[2] = Drug release into fresh PBS solution after packaging storage; conditions: 2 ml fresh PBS
Description: as §1

[3] = Drug release experiments from ethanol-loaded silicone hydrogel pieces soaked in PBS; conditions: GEL1 to GEL4, 0.1-0.4 mm thick, loaded from 0.64 or 6.4 mg/mL ethanol solution
Description: Drugs were individually loaded into individual square pieces of the gels by soaking a gel in 2 or 2.5 mL of a drug-ethanol solution for a period of 3 hours. At the end of three hours the gel was taken out and excess drug-ethanol solution was blotted from the surface of the piece with wipes. The gels were dried in air overnight, and subsequently used for drug release experiments. Results of drug release experiment are given below for three drugs (dexamethasone (DX), dexamethasone acetate (DXA) and timolol) which were individually loaded into different gel pieces.
Drug release experiments were conducted by soaking the square shaped drug containing gel pieces, prepared as described in Example 1, in Dulbecco's phosphate buffered saline (PBS). The volume of the PBS was varied depending on the thickness of the gel to maintain a constant volume ratio of gel to PBS for all samples. The gels of 0.1 mm, 0.2 mm, and 0.4 mm thickness were soaked in 1.5 mL, 3 mL, 6 mL of PBS, respectively.
In like manner to Examples 1, 2 and 3, timolol release experiments were conducted with square pieces of the gels of three different thicknesses for the four different compositions prepared in Example 1 (GEL1 to GEL4), with two different drug loadings by varying the concentration of the drug-ethanol solution used. […]

drug lost to the packaging solution ([1]; stored in 1 ml PBS for 1.3 months): about 364 μg | drug lost to the packaging solution ([1]; stored in 1 ml PBS for 2 months): ~404 µg | further release at a lower rate, duration ([2]; 0.1 mm thick GEL1 after packaging, after the first 20 days): 2 months | average release rate of residual drug into fresh PBS solution ([2]; 0.1 mm thick GEL1 loaded from 6.4 mg/ml ethanol solution, after packaging, for 20 days): 0.09 mg/(g of gel·day) | initial burst release (in words) [3]: initial burst is small in each system
Compound: CC(C)(C)NC[C@H](O)COc1nsnc1N1CCOCC1 [timolol]
release behaviour from gels into PBS (in words) [3]: all gels release timolol over a long period of time
